Assay results as given in patent publication US8748347B2 (priority 2009, dated 2014).

Tests used:
Septoria tritici = assay: Fungicidal action on pathogens, growth in medium analyzed at 405 nm (Example 3); format: cell-based; details: 2% malt medium, 125 ppm, 18° C., seven days
Description: Various pathogens were tested under respective test mediums and concentrations of UV filters (see Table 2). The pathogens were incubated at a temperature of 18° C. for seven days. The growth of the pathogens was compared to an untreated sample. Table 2 lists the growth compared to the untreated sample, which corresponds to 100%. The growth was analyzed at 405 nm.

Ramularia collo-cygni = assay: Preventive action on winter barley against Ramularia collo-cygni, field trial (Example 2); format: in vivo; details: barley variety Malwinta, natural infection, application at BBCH 49, evaluated 12 days after application, 0 = as untreated, 100 = not infected, UV Filter A 500 g ai/ha, Actives A & B 240 & 297 g ai/ha
Description: As active substance a mixture of active substances was used called “Actives A & B”, which was prepared by mixing Active A and Active B. Active A was a fungicidal suspension concentrate comprising 6 wt % epoxiconazol, 20.8 wt % boscalid, 11.2-12.6 wt % fatty alcohol alkoxylate, C8-alkyl glucoside, and phenolsulfonic acid-formaldehyde-polycondensate sodium salt (commercially available pesticide formulation from BASF SE as Champion®). Active B a fungicidal suspoemulsion comprising 20.6 wt % fenpropimorph, 11 wt % pyraclostrobin, 4.1 wt % epoxiconazol, 20.5 wt % solvent naphtha, 11 wt % fatty alcohol ethoxylate and 4.8 wt % phenolsulfonic acid-formaldehyde-polycondensate sodium salt (commercially available pesticide formulation from BASF SE as Diamant®). UV Filter A was prepared as described in example 1.
The biological trial was conducted under field conditions. The barley variety Malwinta was planted and grown under standard conditions with adequate supply of water and nutrients. […] The disease incidences were evaluated 12 days after application.
The diseases were converted into efficacies. […] The expected efficacies of active compound mixtures were determined using Colby's formula [R. S. Colby, “Calculating synergistic and antagonistic responses of herbicide combinations”, Weeds 15, 20-22 (1967)] and compared with the observed efficacies.

Phytophthora infestans = format: cell-based; details: YPBG medium, 125 ppm, 18° C., seven days

Structure (SMILES): COCCOCCOCCOCCOCCOCCOCCOC(=O)C(C#N)=C(c1ccccc1)c1ccccc1 [UV Filter A, 2-Cyano-3,3-diphenyl-acrylsäure-[Pluriol A350E]-ester]
- Growth (%) relative to untreated sample (Septoria tritici): 40%
- Efficacy (Ramularia collo-cygni): 0
- Growth (%) relative to untreated sample (Phytophthora infestans): 78%
